Laboratory results published in article PMC4076210, “Discovery of Novel AKT Inhibitors with Enhanced Anti-Tumor Effects in Combination with the MEK Inhibitor” (PLoS ONE, 2014).
Read-outs that look alike come from different tables or passages of the source.

Legend:
[1] = biological target: T1, ALK(h) (Homo sapiens, UniProt Q9UM73); assay: Kinase panel; type: biochemical
T1 construct: purchased Millipore KinaseProfiler

[2] = biological target: T2, CDK5/p25(h) (Homo sapiens, UniProt Q00535); assay: Kinase panel; type: biochemical
T2 construct: purchased Millipore KinaseProfiler
T2 sequence (Q00535 whole entry): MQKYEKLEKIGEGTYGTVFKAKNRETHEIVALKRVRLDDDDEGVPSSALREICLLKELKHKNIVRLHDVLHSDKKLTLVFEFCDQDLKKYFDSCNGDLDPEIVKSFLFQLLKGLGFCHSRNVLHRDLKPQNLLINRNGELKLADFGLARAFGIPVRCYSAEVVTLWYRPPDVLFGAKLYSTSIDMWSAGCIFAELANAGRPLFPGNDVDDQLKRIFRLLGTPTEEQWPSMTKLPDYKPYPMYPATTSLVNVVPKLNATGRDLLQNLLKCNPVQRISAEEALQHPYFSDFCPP
T2 sequence (Q15078 99-307 partner limits assumed): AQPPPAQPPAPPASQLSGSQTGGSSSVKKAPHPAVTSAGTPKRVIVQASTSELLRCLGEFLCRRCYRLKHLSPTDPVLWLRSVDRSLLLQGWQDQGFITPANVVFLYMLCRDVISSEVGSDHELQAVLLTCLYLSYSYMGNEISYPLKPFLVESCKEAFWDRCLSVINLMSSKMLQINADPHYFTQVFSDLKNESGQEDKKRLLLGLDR

[3] = biological target: T3, Pim-2(h) (Homo sapiens, UniProt Q9P1W9); assay: Kinase panel; type: biochemical
T3 construct: purchased Millipore KinaseProfiler

[4] = biological target: T4, HIPK1(h) (Homo sapiens, UniProt Q86Z02); assay: Kinase panel; type: biochemical
T4 construct: purchased Millipore KinaseProfiler

[5] = biological target: T5, LOK(h) (Homo sapiens, UniProt O94804); assay: Kinase panel; type: biochemical
T5 construct: purchased Millipore KinaseProfiler
T5 sequence (O94804 whole entry): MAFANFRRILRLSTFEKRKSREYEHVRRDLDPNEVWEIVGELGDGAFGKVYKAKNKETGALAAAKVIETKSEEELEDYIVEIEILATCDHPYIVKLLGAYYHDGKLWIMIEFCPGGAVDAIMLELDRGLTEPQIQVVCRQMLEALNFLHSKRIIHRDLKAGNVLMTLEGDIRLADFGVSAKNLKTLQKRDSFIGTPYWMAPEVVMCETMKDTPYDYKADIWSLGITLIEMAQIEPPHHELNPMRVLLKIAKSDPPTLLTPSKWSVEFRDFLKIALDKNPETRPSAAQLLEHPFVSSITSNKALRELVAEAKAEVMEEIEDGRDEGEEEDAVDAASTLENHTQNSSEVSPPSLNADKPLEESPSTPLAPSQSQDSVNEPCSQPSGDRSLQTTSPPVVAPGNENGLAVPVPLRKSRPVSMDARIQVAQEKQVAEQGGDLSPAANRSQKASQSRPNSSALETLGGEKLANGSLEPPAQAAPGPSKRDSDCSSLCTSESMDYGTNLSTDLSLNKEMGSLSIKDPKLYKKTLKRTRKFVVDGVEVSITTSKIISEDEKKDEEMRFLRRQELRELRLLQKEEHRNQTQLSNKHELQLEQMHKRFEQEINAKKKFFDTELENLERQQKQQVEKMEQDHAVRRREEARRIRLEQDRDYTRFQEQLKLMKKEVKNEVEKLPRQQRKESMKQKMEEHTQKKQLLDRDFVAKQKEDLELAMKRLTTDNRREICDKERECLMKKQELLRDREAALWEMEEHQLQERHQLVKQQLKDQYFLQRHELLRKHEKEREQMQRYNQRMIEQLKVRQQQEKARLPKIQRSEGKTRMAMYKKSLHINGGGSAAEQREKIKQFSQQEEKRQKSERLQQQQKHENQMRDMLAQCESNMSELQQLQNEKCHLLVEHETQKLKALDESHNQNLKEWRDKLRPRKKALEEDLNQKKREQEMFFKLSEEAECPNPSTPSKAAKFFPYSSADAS

[6] = biological target: T6, CHK2(h) (Homo sapiens, UniProt O96017); assay: Kinase panel; type: biochemical
T6 construct: purchased Millipore KinaseProfiler
T6 sequence (O96017 whole entry): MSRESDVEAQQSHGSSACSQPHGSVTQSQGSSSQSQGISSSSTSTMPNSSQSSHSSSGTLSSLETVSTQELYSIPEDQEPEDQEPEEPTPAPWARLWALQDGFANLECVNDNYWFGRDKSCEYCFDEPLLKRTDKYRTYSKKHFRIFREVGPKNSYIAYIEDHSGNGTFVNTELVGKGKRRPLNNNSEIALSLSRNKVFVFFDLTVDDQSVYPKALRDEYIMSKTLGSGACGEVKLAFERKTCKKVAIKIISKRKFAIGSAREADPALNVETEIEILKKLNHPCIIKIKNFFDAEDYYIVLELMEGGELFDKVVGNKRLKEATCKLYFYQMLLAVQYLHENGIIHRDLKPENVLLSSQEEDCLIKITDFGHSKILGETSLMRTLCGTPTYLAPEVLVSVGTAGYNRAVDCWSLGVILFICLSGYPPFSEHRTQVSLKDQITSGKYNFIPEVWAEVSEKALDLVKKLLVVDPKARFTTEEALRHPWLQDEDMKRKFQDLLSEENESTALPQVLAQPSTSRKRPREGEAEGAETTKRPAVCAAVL

[7] = test system: AKT substrate phosphorylation in LNCaP; assay: Western analysis of AKT signaling; type: cell-based, human; conditions: 1 h
Protocol: (§1) Cells treated with DMSO or compounds for different duration were lysed using RIPA buffer (Teknova) containing protease and phosphatase inhibitors (Sigma Aldrich). Equal amounts of protein were resolved in 4–12% SDS-PAGE gels (Invitrogen), transferred onto 0.45 µm PVDF membrane (Invitrogen), and incubated with primary antibodies (1∶1000 dilution) overnight. Antibodies for AKT, phospho-AKT (Ser473 and Thr308), phospho-FOXO (Thr24/32), phospho-MEK1/2 (Ser217/221) were purchased from Cell Signaling Technologies. Phospho-GSK3β (Ser9) antibody was from R&D Systems. PRAS40 and phospho-PRAS40 (Thr246) antibodies were obtained from Millipore. Phospho-ERK1/2 (Tyr204), ERK1/2, and phospho-Caspase 9 (Ser196) antibodies were purchased from Santa Cruz Biotechnologies. Tubulin antibodies were purchased from Sigma Aldrich. Following incubation with primary antibody, blots were washed and incubated with IRDye-680 goat-anti-mouse or IRDye-800CW goat-anti-rabbit antibodies (1; 10,000 dilution; LI-COR) for 1 h. Following thorough washing, blots were analyzed using an infrared imaging system (LI-COR).

[8] = test system: AKT substrate phosphorylation in BT474; assay: Western analysis of AKT signaling; type: cell-based, human; conditions: BT474, 1 h
Protocol: as §1

[9] = biological target: T7, CDK1/cyclinB(h) (Homo sapiens, UniProt P06493); assay: Kinase panel; type: biochemical
T7 construct: purchased Millipore KinaseProfiler

[10] = biological target: T8, Src(1-530)(h) (Homo sapiens, UniProt P12931); assay: Kinase panel; type: biochemical
T8 construct: purchased Millipore KinaseProfiler

[11] = biological target: T9, ALK4(h) (Homo sapiens, UniProt P36896); assay: Kinase panel; type: biochemical
T9 construct: purchased Millipore KinaseProfiler
T9 sequence (P36896 24-505): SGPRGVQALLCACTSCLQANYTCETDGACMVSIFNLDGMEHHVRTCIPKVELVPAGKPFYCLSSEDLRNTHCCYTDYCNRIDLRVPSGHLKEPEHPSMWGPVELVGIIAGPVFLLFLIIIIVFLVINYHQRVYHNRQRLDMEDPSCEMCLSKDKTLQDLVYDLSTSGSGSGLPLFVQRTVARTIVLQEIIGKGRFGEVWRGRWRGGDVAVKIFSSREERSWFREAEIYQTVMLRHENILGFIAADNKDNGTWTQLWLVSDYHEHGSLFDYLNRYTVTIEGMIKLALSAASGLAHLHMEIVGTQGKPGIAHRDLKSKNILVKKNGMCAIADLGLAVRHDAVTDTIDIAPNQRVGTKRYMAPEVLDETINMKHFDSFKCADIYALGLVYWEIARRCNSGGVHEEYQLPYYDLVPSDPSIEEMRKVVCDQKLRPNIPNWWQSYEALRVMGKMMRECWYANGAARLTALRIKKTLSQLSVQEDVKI

[12] = biological target: T10, MuSK(h) (Homo sapiens, UniProt O15146); assay: Kinase panel; type: biochemical
T10 construct: purchased Millipore KinaseProfiler
T10 sequence (O15146 24-869): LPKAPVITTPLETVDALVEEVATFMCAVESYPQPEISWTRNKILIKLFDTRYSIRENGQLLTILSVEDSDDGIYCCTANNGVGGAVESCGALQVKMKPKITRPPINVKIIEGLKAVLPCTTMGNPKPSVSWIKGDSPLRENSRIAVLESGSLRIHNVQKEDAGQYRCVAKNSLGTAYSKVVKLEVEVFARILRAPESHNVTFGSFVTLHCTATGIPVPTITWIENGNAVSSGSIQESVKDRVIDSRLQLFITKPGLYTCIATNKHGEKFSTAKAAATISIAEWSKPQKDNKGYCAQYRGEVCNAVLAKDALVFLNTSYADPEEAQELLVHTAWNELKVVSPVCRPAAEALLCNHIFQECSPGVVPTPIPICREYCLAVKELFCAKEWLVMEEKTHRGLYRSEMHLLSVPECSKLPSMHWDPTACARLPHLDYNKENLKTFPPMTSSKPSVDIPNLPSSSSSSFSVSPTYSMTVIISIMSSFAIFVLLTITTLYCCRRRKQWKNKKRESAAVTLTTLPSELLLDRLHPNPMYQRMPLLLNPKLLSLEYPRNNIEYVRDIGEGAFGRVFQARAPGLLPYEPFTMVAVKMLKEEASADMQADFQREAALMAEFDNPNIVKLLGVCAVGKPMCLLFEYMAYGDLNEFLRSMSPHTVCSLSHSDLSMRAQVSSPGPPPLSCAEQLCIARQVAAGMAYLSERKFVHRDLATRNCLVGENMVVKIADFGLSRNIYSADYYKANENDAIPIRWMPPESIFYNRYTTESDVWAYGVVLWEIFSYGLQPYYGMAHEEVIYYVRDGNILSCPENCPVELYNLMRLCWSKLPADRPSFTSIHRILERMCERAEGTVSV

[13] = biological target: T11, EGFR(L858R)(h) (Homo sapiens, UniProt P00533, L858R); assay: Kinase panel; type: biochemical
T11 construct: purchased Millipore KinaseProfiler
T11 sequence (P00533 25-1210 L858R): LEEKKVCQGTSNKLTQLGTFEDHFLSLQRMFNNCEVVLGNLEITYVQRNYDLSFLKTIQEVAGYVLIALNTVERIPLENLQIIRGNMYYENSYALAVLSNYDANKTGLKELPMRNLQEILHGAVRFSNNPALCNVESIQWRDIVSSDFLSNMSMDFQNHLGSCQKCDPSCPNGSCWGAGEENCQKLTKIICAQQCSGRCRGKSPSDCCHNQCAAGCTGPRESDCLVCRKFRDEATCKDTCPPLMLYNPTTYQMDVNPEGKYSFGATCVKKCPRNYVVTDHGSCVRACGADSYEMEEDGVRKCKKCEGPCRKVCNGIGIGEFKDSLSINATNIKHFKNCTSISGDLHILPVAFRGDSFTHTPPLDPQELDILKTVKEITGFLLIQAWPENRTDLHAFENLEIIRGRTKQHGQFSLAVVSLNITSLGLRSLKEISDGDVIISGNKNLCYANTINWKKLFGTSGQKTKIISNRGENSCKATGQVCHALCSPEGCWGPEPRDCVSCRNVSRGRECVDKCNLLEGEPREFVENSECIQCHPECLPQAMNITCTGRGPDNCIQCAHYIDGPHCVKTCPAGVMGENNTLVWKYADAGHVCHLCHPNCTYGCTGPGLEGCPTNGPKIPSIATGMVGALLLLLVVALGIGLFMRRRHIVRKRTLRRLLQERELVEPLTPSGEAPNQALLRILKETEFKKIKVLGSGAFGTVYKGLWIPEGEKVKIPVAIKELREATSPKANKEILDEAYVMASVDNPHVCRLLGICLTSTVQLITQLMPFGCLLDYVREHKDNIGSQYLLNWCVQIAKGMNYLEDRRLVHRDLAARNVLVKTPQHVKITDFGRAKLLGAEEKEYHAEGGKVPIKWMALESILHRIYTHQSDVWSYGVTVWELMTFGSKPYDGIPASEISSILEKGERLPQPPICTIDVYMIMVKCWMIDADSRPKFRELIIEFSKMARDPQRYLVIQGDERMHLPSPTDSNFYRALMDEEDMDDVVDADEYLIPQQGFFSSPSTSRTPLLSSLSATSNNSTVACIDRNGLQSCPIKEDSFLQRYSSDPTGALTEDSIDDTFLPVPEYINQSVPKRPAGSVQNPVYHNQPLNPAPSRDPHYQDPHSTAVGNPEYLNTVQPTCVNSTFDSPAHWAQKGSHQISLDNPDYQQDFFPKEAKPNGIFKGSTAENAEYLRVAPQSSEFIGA

T1 sequence (Q9UM73 19-1620): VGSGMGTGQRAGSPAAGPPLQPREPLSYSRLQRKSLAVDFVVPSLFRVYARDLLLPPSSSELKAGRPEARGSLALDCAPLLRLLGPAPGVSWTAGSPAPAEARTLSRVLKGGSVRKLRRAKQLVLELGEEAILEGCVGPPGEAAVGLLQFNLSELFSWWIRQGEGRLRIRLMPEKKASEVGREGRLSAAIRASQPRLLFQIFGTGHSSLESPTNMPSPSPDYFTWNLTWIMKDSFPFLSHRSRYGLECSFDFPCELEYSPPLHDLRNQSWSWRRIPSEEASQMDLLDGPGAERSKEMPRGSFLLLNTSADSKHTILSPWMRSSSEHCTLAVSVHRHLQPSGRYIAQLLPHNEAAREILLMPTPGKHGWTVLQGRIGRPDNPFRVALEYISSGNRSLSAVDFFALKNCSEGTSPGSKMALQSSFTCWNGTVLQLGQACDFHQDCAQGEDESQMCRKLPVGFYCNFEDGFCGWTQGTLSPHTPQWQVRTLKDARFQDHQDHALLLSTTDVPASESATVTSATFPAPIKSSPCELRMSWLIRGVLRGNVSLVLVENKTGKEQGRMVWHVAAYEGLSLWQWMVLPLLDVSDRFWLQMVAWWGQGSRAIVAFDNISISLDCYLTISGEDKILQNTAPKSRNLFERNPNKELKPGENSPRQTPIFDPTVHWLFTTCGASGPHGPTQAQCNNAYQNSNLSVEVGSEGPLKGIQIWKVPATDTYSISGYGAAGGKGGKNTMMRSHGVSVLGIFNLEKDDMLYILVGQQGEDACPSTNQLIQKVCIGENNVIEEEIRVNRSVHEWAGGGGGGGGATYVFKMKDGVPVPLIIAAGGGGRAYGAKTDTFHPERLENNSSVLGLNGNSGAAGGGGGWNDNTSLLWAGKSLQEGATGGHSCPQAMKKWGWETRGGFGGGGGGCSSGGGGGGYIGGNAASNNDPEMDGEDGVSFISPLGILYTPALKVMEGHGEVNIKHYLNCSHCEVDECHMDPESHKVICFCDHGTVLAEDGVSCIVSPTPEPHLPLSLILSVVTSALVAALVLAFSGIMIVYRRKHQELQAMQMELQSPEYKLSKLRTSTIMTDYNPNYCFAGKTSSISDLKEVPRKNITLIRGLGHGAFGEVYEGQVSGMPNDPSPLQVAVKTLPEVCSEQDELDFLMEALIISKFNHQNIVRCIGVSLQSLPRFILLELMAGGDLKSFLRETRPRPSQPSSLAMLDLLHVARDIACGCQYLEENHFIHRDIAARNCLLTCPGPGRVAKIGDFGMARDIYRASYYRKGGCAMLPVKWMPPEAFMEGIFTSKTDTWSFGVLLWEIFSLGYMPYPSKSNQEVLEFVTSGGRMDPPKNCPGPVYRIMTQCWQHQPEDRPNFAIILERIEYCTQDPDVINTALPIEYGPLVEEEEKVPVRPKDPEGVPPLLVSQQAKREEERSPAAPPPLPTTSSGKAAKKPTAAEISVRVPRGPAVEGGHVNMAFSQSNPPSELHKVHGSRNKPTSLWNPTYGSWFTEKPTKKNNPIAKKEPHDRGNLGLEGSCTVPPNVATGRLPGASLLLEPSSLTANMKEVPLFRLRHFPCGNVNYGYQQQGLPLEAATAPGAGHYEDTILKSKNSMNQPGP

`Cn1ncc(Cl)c1-c1cc(C(=O)N[C@H](CN)Cc2cccc(F)c2)sc1Cl` [GSK2110183] was tested, and the inhibition at 0.5 µM [1] was -22%, the inhibition at 10 µM [1] was 0% and the inhibition at 0.5 µM [2] was -4%. For the same compound, the inhibition at 10 µM [2] was 28%, the inhibition at 0.5 µM [3] was 5% and the inhibition at 10 µM [3] was 35%. For the same compound, the inhibition at 0.5 µM [4] was 9%, the inhibition at 10 µM [4] was 72% and the inhibition at 0.5 µM [5] was -9%. It also gave an inhibition at 10 µM [5] of 5%, an inhibition at 0.5 µM [6] of 39% and an inhibition at 10 µM [6] of 97%. The “AKT substrate phosphorylation levels (GSK3β, PRAS40, FOXO, Caspase 9)” value (“AKT substrate phosphorylation levels” for short) [7] was “concentration-dependent effect”, the “AKT substrate phosphorylation levels” value [8] was “concentration-dependent effect” and the inhibition at 0.5 µM [9] was -3%. For the same compound, the inhibition at 10 µM [9] was 7%, the inhibition at 0.5 µM [10] was -12% and the inhibition at 10 µM [10] was 61%. It also gave an inhibition at 0.5 µM [11] of 3%, an inhibition at 10 µM [11] of 0% and an inhibition at 0.5 µM [12] of -25%. For the same compound, the inhibition at 10 µM [12] was -20%, the inhibition at 0.5 µM [13] was 3% and the inhibition at 10 µM [13] was 15%.

For `Cn1ncc(Cl)c1-c1cc(C(=O)N[C@H](CN)Cc2ccc(F)c(F)c2)oc1Cl` [GSK2141795], the inhibition at 0.5 µM ([1]; 0.5 µM, read-out: % Inhibition) was -8%, the inhibition at 10 µM ([1]; 10 µM, read-out: % Inhibition) was -4% and the inhibition at 0.5 µM ([2]; 0.5 µM, read-out: % Inhibition) was -8%. It also gave an inhibition at 10 µM ([2]; 10 µM, read-out: % Inhibition) of 37%, an inhibition at 0.5 µM ([3]; 0.5 µM, read-out: % Inhibition) of -7% and an inhibition at 10 µM ([3]; 10 µM, read-out: % Inhibition) of 9%. The inhibition at 0.5 µM ([4]; 0.5 µM, read-out: % Inhibition) was 2%, the inhibition at 10 µM ([4]; 10 µM, read-out: % Inhibition) was 62% and the inhibition at 0.5 µM ([5]; 0.5 µM, read-out: % Inhibition) was -14%. The inhibition at 10 µM ([5]; 10 µM, read-out: % Inhibition) was 11%, the inhibition at 0.5 µM ([6]; 0.5 µM, read-out: % Inhibition) was 36% and the inhibition at 10 µM ([6]; 10 µM, read-out: % Inhibition) was 91%. For the same compound, the “AKT substrate phosphorylation levels” value [7] was “concentration-dependent effect”, the “AKT substrate phosphorylation levels” value [8] was “concentration-dependent effect” and the inhibition at 0.5 µM ([9]; 0.5 µM, read-out: % Inhibition) was -5%. The inhibition at 10 µM ([9]; 10 µM, read-out: % Inhibition) was 12%, the inhibition at 0.5 µM ([10]; 0.5 µM, read-out: % Inhibition) was -30% and the inhibition at 10 µM ([10]; 10 µM, read-out: % Inhibition) was 30%. It also gave an inhibition at 0.5 µM ([11]; 0.5 µM, read-out: % Inhibition) of -8%, an inhibition at 10 µM ([11]; 10 µM, read-out: % Inhibition) of -18% and an inhibition at 0.5 µM ([12]; 0.5 µM, read-out: % Inhibition) of -11%. It also gave an inhibition at 10 µM ([12]; 10 µM, read-out: % Inhibition) of -2%, an inhibition at 0.5 µM ([13]; 0.5 µM, read-out: % Inhibition) of 3% and an inhibition at 10 µM ([13]; 10 µM, read-out: % Inhibition) of 24%.
